From PubChem BioAssay AID248 (DTP/NCI, 2004)
“And” between values parts separate entries of the source, which are not always exact repeats. Equal values may be shown once. Toxic doses and inconclusive results are not listed. Rule as the data show it: active = T/C of 150% or more; inactive = T/C below 125%.

System: L1210 leukemia ip in BDF1 mice, survival T/C
Experiment: NCI In Vivo Anticancer Drug Screen. Data for tumor model L1210 Leukemia (intraperitoneal) in B6D2F1 (BDF1) mice
Details: endpoint: mean survival time, higher = longer survival
How it was run: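 Mice bearing the transplanted tumor received compound or vehicle. Survival of the treated group was divided by that of the vehicle-treated control group to give the ratio.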

[1] = dose: 100.0 mg/kg/injection, schedule: Q01DX001 (ip), vehicle: saline
[2] = dose: 200.0 mg/kg/injection, schedule: Q01DX001 (ip), vehicle: saline
[3] = dose: 50.0 mg/kg/injection, schedule: Q01DX009 (ip), vehicle: saline
[4] = dose: 100.0 mg/kg/injection, schedule: Q04DX003 (ip), vehicle: saline
[5] = dose: 100.0 mg/kg/injection, schedule: Q04DX003 (ip), vehicle: saline with Tween-80
[6] = dose: 200.0 mg/kg/injection, schedule: Q04DX003 (ip), vehicle: saline with Tween-80
[7] = dose: 100.0 mg/kg/injection, schedule: Q01DX009 (ip), vehicle: saline with Tween-80
[8] = dose: 200.0 mg/kg/injection, schedule: Q01DX009 (ip), vehicle: saline with Tween-80
[9] = dose: 400.0 mg/kg/injection, schedule: Q01DX009 (ip), vehicle: saline with Tween-80
[10] = dose: 400.0 mg/kg/injection, schedule: Q04DX003 (ip), vehicle: saline with Tween-80
[11] = dose: 75.0 mg/kg/injection, schedule: Q01DX001 (ip), vehicle: carboxymethylcellulose (CMC)
[12] = dose: 150.0 mg/kg/injection, schedule: Q01DX001 (ip), vehicle: carboxymethylcellulose (CMC)
[13] = dose: 200.0 mg/kg/injection, schedule: Q04DX003 (ip), vehicle: saline
[14] = dose: 400.0 mg/kg/injection, schedule: Q04DX003 (ip), vehicle: saline
[15] = dose: 100.0 mg/kg/injection, schedule: Q01DX001 (ip), vehicle: saline with Tween-80
[16] = dose: 200.0 mg/kg/injection, schedule: Q01DX001 (ip), vehicle: saline with Tween-80

Measured: T/C

NCCCC(N)C(=O)NCCCCCCNCCCCCCNC(=O)C(N)CCCN (centres undefined)
inactive: dose: 0.38 mg/kg/injection, schedule: Q01DX Z (ip), vehicle: saline 94 % of control | dose: 0.75 mg/kg/injection, schedule: Q01DX Z (ip), vehicle: saline 102 % of control | dose: 1.5 mg/kg/injection, schedule: Q01DX Z (ip), vehicle: saline 98 % of control | dose: 3.0 mg/kg/injection, schedule: Q01DX Z (ip), vehicle: saline 100 % of control and 106 % of control | dose: 10.0 mg/kg/injection, schedule: Q01DX Z (ip), vehicle: saline 93 % of control | dose: 30.0 mg/kg/injection, schedule: Q01DX Z (ip), vehicle: saline 96 % of control | dose: 50.0 mg/kg/injection, schedule: Q01DX001 (ip), vehicle: saline 101 % of control | [1] 98 % of control | dose: 100.0 mg/kg/injection, schedule: Q01DX Z (ip), vehicle: saline 91 % of control | [2] 95 % of control

NCCCCCCNC(=O)CCC(=O)NCCCCCCN
inactive: dose: 8.0 mg/kg/injection, schedule: Q01DX Z (ip), vehicle: water 86 % of control | dose: 16.0 mg/kg/injection, schedule: Q01DX Z (ip), vehicle: water 91 % of control | dose: 32.0 mg/kg/injection, schedule: Q01DX Z (ip), vehicle: water 88 % of control | dose: 64.0 mg/kg/injection, schedule: Q01DX Z (ip), vehicle: saline 109 % of control | dose: 64.0 mg/kg/injection, schedule: Q01DX Z (ip), vehicle: water 91 % of control | dose: 128.0 mg/kg/injection, schedule: Q01DX Z (ip), vehicle: saline 88 % of control

CCN(CC)CCOc1c(C(C)C)cccc1C(C)C
inactive: dose: 12.5 mg/kg/injection, schedule: Q01DX009 (ip), vehicle: saline 101 % of control | dose: 25.0 mg/kg/injection, schedule: Q01DX009 (ip), vehicle: saline 108 % of control | [3] 108 % of control and 89 % of control | [4] 117 % of control

CN(/N=C/c1ccccc1)C(=S)Nc1ccccc1
inactive: dose: 62.5 mg/kg/injection, schedule: Q04DX003 (ip), vehicle: Klucel (hydroxypropylcellulose) (HPC) 100 % of control | dose: 250.0 mg/kg/injection, schedule: Q04DX003 (ip), vehicle: Klucel (hydroxypropylcellulose) (HPC) 103 % of control

Nc1cnccc1Nc1ccncc1
inactive: [5] 96 % of control | [6] 96 % of control

CCCCCC(CN(C)C)C(=O)/C=C/c1ccc(Cl)c(Cl)c1 (centres undefined)
inactive: dose: 12.5 mg/kg/injection, schedule: Q04DX003 (ip), vehicle: acetone 95 % of control | dose: 25.0 mg/kg/injection, schedule: Q04DX003 (ip), vehicle: acetone 92 % of control

CC(C)CCCBr
inactive: [7] 101 % of control | [5] 94 % of control | [8] 100 % of control | [6] 95 % of control | [9] 94 % of control | [10] 99 % of control

CN(C)CCCC1c2ccccc2Oc2ccc(C(F)(F)F)cc21 (centres undefined)
inactive: dose: 0.78 mg/kg/injection, schedule: Q04DX003 (ip), vehicle: saline 103 % of control | dose: 1.56 mg/kg/injection, schedule: Q04DX003 (ip), vehicle: saline 102 % of control | dose: 3.12 mg/kg/injection, schedule: Q04DX003 (ip), vehicle: saline 105 % of control | dose: 6.25 mg/kg/injection, schedule: Q04DX003 (ip), vehicle: saline 105 % of control | dose: 12.5 mg/kg/injection, schedule: Q04DX003 (ip), vehicle: saline 102 % of control | dose: 25.0 mg/kg/injection, schedule: Q04DX003 (ip), vehicle: saline 117 % of control | [3] 100 % of control

CN(C)CCC1(c2ccccc2)CCN(C)C1=O (centres undefined)
inactive: [11] 95 % of control | [12] 95 % of control

c1ccc2c(c1)Nc1ccccc1[As]2C1CCCCC1
inactive: dose: 12.5 mg/kg/injection, schedule: Q04DX002 (ip), vehicle: saline with Tween-80 99 % of control | dose: 25.0 mg/kg/injection, schedule: Q04DX002 (ip), vehicle: saline with Tween-80 99 % of control | dose: 50.0 mg/kg/injection, schedule: Q04DX002 (ip), vehicle: saline with Tween-80 101 % of control

COc1cc2c(c(OC)c1OC)CN(CC1COc3ccccc3O1)CC2 (centres undefined)
inactive: [5] 98 % of control | [6] 101 % of control | [10] 96 % of control

COC(=O)CCc1ccc(NP(=O)(N2CC2)N2CC2)cc1
inactive: dose: 25.0 mg/kg/injection, schedule: Q01DX015 (ip), vehicle: carboxymethylcellulose (CMC) 122 % of control | dose: 50.0 mg/kg/injection, schedule: Q01DX015 (ip), vehicle: carboxymethylcellulose (CMC) 119 % of control

BrC1(Br)C23CC=CCC12CCCC3 (centres undefined)
inactive: [4] 95 % of control | [13] 100 % of control | [14] 105 % of control

O=[N+]([O-])c1ccc(Sc2ccsc2)c([N+](=O)[O-])c1
inactive: [1] 101 % of control | [2] 98 % of control

O=C1NC(=O)C(O)(C2(O)C(=O)NC(=O)NC2=O)C(=O)N1
inactive: [11] 101 % of control | [7] 106 % of control | [12] 102 % of control | [8] 92 % of control | [9] 88 % of control

CC(Cc1ccccc1)n1c(-c2ccccc2)c[n+]2ccccc12 (centres undefined)
inactive: dose: 1.17 mg/kg/injection, schedule: Q01DX001 (ip), vehicle: other 101 % of control | dose: 2.34 mg/kg/injection, schedule: Q01DX001 (ip), vehicle: other 102 % of control | dose: 4.69 mg/kg/injection, schedule: Q01DX001 (ip), vehicle: other 102 % of control

CCOC1(OCC)CS(=O)(=O)C1Cl (centres undefined)
inactive: dose: 50.0 mg/kg/injection, schedule: Q01DX001 (ip), vehicle: saline with Tween-80 107 % of control | [15] 98 % of control | [16] 98 % of control

Cc1ccc(S(=O)(=O)Nc2ccccc2-c2nc3c(Cl)ccc(Cl)c3c(=O)o2)cc1
inactive: dose: 100.0 mg/kg/injection, schedule: Q01DX009 (ip), vehicle: other 105 % of control | [4] 88 % of control | dose: 200.0 mg/kg/injection, schedule: Q01DX009 (ip), vehicle: other 96 % of control | [13] 93 % of control | dose: 400.0 mg/kg/injection, schedule: Q01DX009 (ip), vehicle: other 104 % of control | [14] 90 % of control

O=C(/C=C(\c1ccccc1)C1C2C=CC(C2)C1c1ccccc1)c1ccccc1 (centres undefined)
inactive: [15] 97 % of control | [16] 95 % of control | dose: 400.0 mg/kg/injection, schedule: Q01DX001 (ip), vehicle: saline with Tween-80 96 % of control

CC(C)C1(C(=O)O)SCCCS1
inactive: dose: 50.0 mg/kg/injection, schedule: Q04DX003 (ip), vehicle: saline 100 % of control | [4] 110 % of control | [13] 102 % of control | [14] 98 % of control

O=C1CC2=CC3C=CC(N1)C2c1ccccc13 (centres undefined)
inactive: [5] 101 % of control | [6] 93 % of control | [10] 93 % of control

O=C(O)/C=C/C(=O)Nc1cccc(NC(=O)/C=C/C(=O)O)c1
inactive: dose: 100.0 mg/kg/injection, schedule: Q04DX003 (ip), vehicle: Klucel (hydroxypropylcellulose) (HPC) 94 % of control | dose: 200.0 mg/kg/injection, schedule: Q04DX003 (ip), vehicle: Klucel (hydroxypropylcellulose) (HPC) 97 % of control | dose: 400.0 mg/kg/injection, schedule: Q04DX003 (ip), vehicle: Klucel (hydroxypropylcellulose) (HPC) 96 % of control
